Experimental data published in ChEMBL document CHEMBL3885881, “DrugMatrix”.

Organism: Rattus norvegicus
Experiment: DrugMatrix - Regimen: Daily Repeat
Assay type: toxicity, organism-based, Sprague-Dawley
Design: regimen Daily Repeat, gender Male, age 6-8 weeks
Conditions: in vivo, po, route oral GAVAGE, vehicle 100 % WATER; for ABSOLUTE BASOPHIL / ABSOLUTE EOSINOPHIL / ABSOLUTE LYMPHOCYTE / ABSOLUTE MONOCYTE / ABSOLUTE SEGMENTED NEUTROPHIL / BASOPHIL / EOSINOPHIL / ERYTHROCYTE COUNT / HEMATOCRIT / HEMOGLOBIN / LEUKOCYTE COUNT / LYMPHOCYTE / MEAN CORPUSCULAR HEMOGLOBIN / MEAN CORPUSCULAR HEMOGLOBIN CONCENTRATION / MEAN CORPUSCULAR VOLUME / MONOCYTE / NEUTROPHIL / NUCLEATED RED BLOOD CELLS / PLATELET COUNT: tissue Blood; for ALANINE AMINOTRANSFERASE / ALBUMIN / ALKALINE PHOSPHATASE / ASPARTATE AMINOTRANSFERASE / BLOOD UREA NITROGEN / CARBON DIOXIDE / CHLORIDE / CHOLESTEROL / CREATINE PHOSPHOKINASE / CREATININE / GLUCOSE / LACTATE DEHYDROGENASE / LIPASE / PHOSPHORUS / POTASSIUM / SODIUM / TOTAL BILIRUBIN / TOTAL PROTEIN / URIC ACID: tissue Plasma
[1] = 0 mg/kg, 72 h, dose level Control, time 3 day
[2] = 0 mg/kg, 120 h, dose level Control, time 5 day
[3] = 100 mg/kg, 72 h, dose level Low, time 3 day

CC(C)(S)[C@@H](N)C(=O)O [PENICILLAMINE]
ABSOLUTE BASOPHIL [1]: 0 CELLS/uL | ABSOLUTE EOSINOPHIL [1]: 0 CELLS/uL | ABSOLUTE LYMPHOCYTE [1]: 7802.17 CELLS/uL | ABSOLUTE MONOCYTE [1]: 13.5 CELLS/uL | ABSOLUTE SEGMENTED NEUTROPHIL [1]: 617.67 CELLS/uL | BASOPHIL [1]: 0% | EOSINOPHIL [1]: 0% | ERYTHROCYTE COUNT [1]: 5.35 x10E6/uL | HEMATOCRIT [1]: 33.02% | HEMOGLOBIN [1]: 12.88 G/DL | LEUKOCYTE COUNT [1]: 8.43 x10E3/uL | LYMPHOCYTE [1]: 92.67% | MEAN CORPUSCULAR HEMOGLOBIN [1]: 24.12 pg | MEAN CORPUSCULAR HEMOGLOBIN CONCENTRATION [1]: 39.03 G/DL | MEAN CORPUSCULAR VOLUME [1]: 61.8 fL | MONOCYTE [1]: 0.17% | NEUTROPHIL [1]: 7.17% | NUCLEATED RED BLOOD CELLS [1]: 0 /100WBC | PLATELET COUNT [1]: 1124.83 x10E3/uL | ALANINE AMINOTRANSFERASE [1]: 54.17 u/L | ALBUMIN [1]: 4.07 G/DL | ALKALINE PHOSPHATASE [1]: 383.83 u/L | ASPARTATE AMINOTRANSFERASE [1]: 82.17 u/L | BLOOD UREA NITROGEN [1]: 13.67 mg/dL | CARBON DIOXIDE [1]: 31 mmol/L | CHLORIDE [1]: 100.83 MEQ/L | CHOLESTEROL [1]: 65.17 mg/dL | CREATINE PHOSPHOKINASE [1]: 228.33 u/L | CREATININE [1]: 0.12 mg/dL | GLUCOSE [1]: 148 mg/dL | LACTATE DEHYDROGENASE [1]: 97.83 u/L | LIPASE [1]: 9.17 u/L | PHOSPHORUS [1]: 9.75 mg/dL | POTASSIUM [1]: 5.85 MEQ/L | SODIUM [1]: 147.02 MEQ/L | TOTAL BILIRUBIN [1]: 0.18 mg/dL | TOTAL PROTEIN [1]: 6.1 G/DL | URIC ACID [1]: 0.5 mg/dL | ABSOLUTE BASOPHIL [2]: 0 CELLS/uL | ABSOLUTE EOSINOPHIL [2]: 0 CELLS/uL | ABSOLUTE LYMPHOCYTE [2]: 10538 CELLS/uL | ABSOLUTE MONOCYTE [2]: 15.83 CELLS/uL | ABSOLUTE SEGMENTED NEUTROPHIL [2]: 762.83 CELLS/uL | BASOPHIL [2]: 0% | EOSINOPHIL [2]: 0% | ERYTHROCYTE COUNT [2]: 5.49 x10E6/uL | HEMATOCRIT [2]: 34.63% | HEMOGLOBIN [2]: 13.72 G/DL | LEUKOCYTE COUNT [2]: 11.32 x10E3/uL | LYMPHOCYTE [2]: 92.67% | MEAN CORPUSCULAR HEMOGLOBIN [2]: 24.97 pg | MEAN CORPUSCULAR HEMOGLOBIN CONCENTRATION [2]: 39.57 G/DL | MEAN CORPUSCULAR VOLUME [2]: 63.05 fL | MONOCYTE [2]: 0.17% | NEUTROPHIL [2]: 7.17% | NUCLEATED RED BLOOD CELLS [2]: 0.17 /100WBC | PLATELET COUNT [2]: 802 x10E3/uL | ALANINE AMINOTRANSFERASE [2]: 50.5 u/L | ALBUMIN [2]: 4.07 G/DL | ALKALINE PHOSPHATASE [2]: 336.83 u/L | ASPARTATE AMINOTRANSFERASE [2]: 81 u/L | BLOOD UREA NITROGEN [2]: 14.17 mg/dL | CARBON DIOXIDE [2]: 32 mmol/L | CHLORIDE [2]: 98.33 MEQ/L | CHOLESTEROL [2]: 69.17 mg/dL | CREATINE PHOSPHOKINASE [2]: 253.33 u/L | CREATININE [2]: 0.13 mg/dL | GLUCOSE [2]: 153.67 mg/dL | LACTATE DEHYDROGENASE [2]: 157 u/L | LIPASE [2]: 9 u/L | PHOSPHORUS [2]: 10.78 mg/dL | POTASSIUM [2]: 6.11 MEQ/L | SODIUM [2]: 144.57 MEQ/L | TOTAL BILIRUBIN [2]: 0.15 mg/dL | TOTAL PROTEIN [2]: 6.05 G/DL | URIC ACID [2]: 0.73 mg/dL | ABSOLUTE BASOPHIL [3]: 0 CELLS/uL | ABSOLUTE EOSINOPHIL [3]: 0 CELLS/uL | ABSOLUTE LYMPHOCYTE [3]: 8040.67 CELLS/uL | ABSOLUTE MONOCYTE [3]: 62.33 CELLS/uL | ABSOLUTE SEGMENTED NEUTROPHIL [3]: 563.67 CELLS/uL | BASOPHIL [3]: 0% | EOSINOPHIL [3]: 0% | ERYTHROCYTE COUNT [3]: 5.32 x10E6/uL | HEMATOCRIT [3]: 34.33% | HEMOGLOBIN [3]: 13 G/DL | LEUKOCYTE COUNT [3]: 8.67 x10E3/uL | LYMPHOCYTE [3]: 92.67% | MEAN CORPUSCULAR HEMOGLOBIN [3]: 24.53 pg | MEAN CORPUSCULAR HEMOGLOBIN CONCENTRATION [3]: 37.9 G/DL | MEAN CORPUSCULAR VOLUME [3]: 64.67 fL | MONOCYTE [3]: 0.67% | NEUTROPHIL [3]: 6.67% | NUCLEATED RED BLOOD CELLS [3]: 0 /100WBC | PLATELET COUNT [3]: 991.33 x10E3/uL | ALANINE AMINOTRANSFERASE [3]: 51 u/L | ALBUMIN [3]: 4.03 G/DL | ALKALINE PHOSPHATASE [3]: 403.33 u/L | ASPARTATE AMINOTRANSFERASE [3]: 82.33 u/L | BLOOD UREA NITROGEN [3]: 13.67 mg/dL | CARBON DIOXIDE [3]: 32.33 mmol/L | CHLORIDE [3]: 100.33 MEQ/L | CHOLESTEROL [3]: 73.33 mg/dL | CREATINE PHOSPHOKINASE [3]: 332 u/L | CREATININE [3]: 0.11 mg/dL | GLUCOSE [3]: 145.67 mg/dL | LACTATE DEHYDROGENASE [3]: 165 u/L | LIPASE [3]: 9 u/L | PHOSPHORUS [3]: 10 mg/dL | POTASSIUM [3]: 5.88 MEQ/L | SODIUM [3]: 145.23 MEQ/L | TOTAL BILIRUBIN [3]: 0.13 mg/dL | TOTAL PROTEIN [3]: 5.93 G/DL | URIC ACID [3]: 0.73 mg/dL
